From ChEMBL document CHEMBL5212743, “Selectivity Literature for EUbOPEN Chemogenomics Library wave 3” (2023)

Experiments:
[1] = target: D(1A) dopamine receptor (Homo sapiens, UniProt P21728); assay: Selectivity interaction (GPCR panel (PDSP screen)) EUB0000335a DRD1
[2] = target: Cyclin-dependent kinase 3 (Homo sapiens) (UniProt Q00526); assay: Selectivity interaction (KinomeScan (DiscoverX)) EUB0000335a CDK3; conditions: at 1 µM
[3] = target: Mitotic checkpoint serine/threonine-protein kinase BUB1 (Homo sapiens) (UniProt O43683); assay: Selectivity interaction (KinomeScan (DiscoverX)) EUB0000335a BUB1; conditions: at 1 µM
Mitotic checkpoint serine/threonine-protein kinase BUB1 (Homo sapiens), sequence (O43683 whole entry, looked up): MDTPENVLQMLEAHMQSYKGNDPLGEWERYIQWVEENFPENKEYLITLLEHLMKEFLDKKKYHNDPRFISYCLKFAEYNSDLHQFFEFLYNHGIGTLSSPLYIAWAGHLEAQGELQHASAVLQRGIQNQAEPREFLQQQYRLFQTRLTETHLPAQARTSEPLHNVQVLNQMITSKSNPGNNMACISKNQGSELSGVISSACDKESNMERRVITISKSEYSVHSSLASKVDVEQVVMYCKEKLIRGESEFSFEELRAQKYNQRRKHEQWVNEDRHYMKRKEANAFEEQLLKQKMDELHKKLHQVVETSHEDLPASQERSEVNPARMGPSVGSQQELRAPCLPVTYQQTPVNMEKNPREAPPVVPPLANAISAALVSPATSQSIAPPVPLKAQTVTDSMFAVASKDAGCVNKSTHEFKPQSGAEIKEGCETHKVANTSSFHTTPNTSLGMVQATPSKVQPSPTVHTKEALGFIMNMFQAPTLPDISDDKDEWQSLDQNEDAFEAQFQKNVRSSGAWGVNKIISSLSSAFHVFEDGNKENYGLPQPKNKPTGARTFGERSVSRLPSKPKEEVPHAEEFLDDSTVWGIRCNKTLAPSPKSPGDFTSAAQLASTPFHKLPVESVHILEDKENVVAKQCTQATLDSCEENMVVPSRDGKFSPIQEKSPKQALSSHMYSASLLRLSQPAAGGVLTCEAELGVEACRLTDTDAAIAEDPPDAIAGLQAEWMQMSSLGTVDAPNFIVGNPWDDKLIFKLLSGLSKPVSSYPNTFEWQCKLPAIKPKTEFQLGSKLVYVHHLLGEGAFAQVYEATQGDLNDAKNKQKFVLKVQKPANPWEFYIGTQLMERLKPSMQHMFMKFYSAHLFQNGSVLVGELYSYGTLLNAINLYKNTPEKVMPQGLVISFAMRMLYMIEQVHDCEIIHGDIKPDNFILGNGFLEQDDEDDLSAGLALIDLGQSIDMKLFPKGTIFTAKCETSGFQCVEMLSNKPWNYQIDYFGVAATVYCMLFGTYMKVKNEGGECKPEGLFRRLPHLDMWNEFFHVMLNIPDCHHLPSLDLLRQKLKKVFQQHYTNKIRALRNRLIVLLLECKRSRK

[4] = target: Serine/threonine-protein kinase WNK2 (Homo sapiens) (UniProt Q9Y3S1); assay: Selectivity interaction (KinomeScan (DiscoverX)) EUB0000335a WNK2; conditions: at 1 µM
Serine/threonine-protein kinase WNK2 (Homo sapiens), sequence (Q9Y3S1 whole entry): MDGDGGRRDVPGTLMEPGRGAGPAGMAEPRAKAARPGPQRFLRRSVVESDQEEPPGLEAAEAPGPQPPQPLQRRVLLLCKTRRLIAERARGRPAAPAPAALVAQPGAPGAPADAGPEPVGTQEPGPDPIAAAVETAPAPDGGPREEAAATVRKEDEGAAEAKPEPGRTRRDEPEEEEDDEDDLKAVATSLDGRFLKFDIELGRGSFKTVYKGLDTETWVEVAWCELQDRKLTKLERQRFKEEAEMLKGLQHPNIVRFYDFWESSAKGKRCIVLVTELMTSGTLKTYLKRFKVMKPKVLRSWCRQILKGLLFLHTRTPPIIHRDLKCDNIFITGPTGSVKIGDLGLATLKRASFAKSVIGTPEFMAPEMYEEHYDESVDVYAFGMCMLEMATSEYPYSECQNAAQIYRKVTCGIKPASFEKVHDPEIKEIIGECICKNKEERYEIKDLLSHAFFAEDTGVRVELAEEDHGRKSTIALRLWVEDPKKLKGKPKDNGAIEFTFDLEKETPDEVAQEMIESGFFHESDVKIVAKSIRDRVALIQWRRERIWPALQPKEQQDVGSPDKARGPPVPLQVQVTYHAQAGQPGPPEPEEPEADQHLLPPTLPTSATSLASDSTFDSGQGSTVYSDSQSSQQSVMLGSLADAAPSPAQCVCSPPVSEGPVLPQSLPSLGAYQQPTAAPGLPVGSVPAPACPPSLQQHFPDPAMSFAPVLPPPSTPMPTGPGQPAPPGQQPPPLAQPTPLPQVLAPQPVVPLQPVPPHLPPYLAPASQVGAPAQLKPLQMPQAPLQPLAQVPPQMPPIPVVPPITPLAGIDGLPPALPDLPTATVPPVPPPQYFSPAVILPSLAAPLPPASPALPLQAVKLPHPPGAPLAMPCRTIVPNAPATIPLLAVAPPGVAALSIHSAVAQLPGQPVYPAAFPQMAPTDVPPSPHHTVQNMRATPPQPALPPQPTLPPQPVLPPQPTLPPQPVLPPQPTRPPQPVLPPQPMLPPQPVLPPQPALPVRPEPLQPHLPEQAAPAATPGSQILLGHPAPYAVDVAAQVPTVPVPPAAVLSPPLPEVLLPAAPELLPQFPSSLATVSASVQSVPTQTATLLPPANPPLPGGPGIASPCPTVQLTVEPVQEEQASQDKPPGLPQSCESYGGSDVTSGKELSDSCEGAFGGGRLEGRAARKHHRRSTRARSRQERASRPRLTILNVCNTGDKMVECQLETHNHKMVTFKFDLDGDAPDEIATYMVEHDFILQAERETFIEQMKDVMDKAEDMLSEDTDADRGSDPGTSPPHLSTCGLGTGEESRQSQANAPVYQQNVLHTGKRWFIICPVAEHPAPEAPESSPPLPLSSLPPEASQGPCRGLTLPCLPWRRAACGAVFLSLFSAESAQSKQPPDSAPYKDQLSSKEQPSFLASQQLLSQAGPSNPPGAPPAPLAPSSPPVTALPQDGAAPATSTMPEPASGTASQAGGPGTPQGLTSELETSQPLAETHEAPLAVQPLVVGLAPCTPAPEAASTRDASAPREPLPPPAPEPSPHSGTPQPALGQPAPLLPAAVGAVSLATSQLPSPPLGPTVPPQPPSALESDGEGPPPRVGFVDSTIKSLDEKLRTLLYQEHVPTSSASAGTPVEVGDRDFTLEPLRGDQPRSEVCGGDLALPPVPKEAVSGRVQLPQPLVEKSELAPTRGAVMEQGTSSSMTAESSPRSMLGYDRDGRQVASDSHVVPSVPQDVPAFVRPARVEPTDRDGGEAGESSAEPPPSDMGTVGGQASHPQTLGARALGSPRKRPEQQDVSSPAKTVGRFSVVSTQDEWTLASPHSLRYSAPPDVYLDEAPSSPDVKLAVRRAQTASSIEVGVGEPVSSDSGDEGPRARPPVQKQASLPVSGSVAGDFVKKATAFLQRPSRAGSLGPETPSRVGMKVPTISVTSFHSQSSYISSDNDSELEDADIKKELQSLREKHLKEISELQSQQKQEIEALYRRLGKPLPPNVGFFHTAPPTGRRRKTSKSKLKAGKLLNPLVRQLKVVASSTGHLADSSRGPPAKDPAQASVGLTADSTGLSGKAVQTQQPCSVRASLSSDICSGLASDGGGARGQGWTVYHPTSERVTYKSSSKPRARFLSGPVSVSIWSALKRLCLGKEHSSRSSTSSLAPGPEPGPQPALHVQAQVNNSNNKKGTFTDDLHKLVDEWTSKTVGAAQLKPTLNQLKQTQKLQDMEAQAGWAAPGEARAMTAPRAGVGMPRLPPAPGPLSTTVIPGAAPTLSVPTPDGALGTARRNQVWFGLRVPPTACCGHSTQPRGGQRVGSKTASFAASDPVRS

[5] = target: T1, Mitogen-activated protein kinase kinase kinase 13 (Homo sapiens) (UniProt O43283); assay: Selectivity interaction (KinomeScan (DiscoverX)) EUB0000335a MAP3K13; conditions: at 1 µM
T1 sequence (whole entry): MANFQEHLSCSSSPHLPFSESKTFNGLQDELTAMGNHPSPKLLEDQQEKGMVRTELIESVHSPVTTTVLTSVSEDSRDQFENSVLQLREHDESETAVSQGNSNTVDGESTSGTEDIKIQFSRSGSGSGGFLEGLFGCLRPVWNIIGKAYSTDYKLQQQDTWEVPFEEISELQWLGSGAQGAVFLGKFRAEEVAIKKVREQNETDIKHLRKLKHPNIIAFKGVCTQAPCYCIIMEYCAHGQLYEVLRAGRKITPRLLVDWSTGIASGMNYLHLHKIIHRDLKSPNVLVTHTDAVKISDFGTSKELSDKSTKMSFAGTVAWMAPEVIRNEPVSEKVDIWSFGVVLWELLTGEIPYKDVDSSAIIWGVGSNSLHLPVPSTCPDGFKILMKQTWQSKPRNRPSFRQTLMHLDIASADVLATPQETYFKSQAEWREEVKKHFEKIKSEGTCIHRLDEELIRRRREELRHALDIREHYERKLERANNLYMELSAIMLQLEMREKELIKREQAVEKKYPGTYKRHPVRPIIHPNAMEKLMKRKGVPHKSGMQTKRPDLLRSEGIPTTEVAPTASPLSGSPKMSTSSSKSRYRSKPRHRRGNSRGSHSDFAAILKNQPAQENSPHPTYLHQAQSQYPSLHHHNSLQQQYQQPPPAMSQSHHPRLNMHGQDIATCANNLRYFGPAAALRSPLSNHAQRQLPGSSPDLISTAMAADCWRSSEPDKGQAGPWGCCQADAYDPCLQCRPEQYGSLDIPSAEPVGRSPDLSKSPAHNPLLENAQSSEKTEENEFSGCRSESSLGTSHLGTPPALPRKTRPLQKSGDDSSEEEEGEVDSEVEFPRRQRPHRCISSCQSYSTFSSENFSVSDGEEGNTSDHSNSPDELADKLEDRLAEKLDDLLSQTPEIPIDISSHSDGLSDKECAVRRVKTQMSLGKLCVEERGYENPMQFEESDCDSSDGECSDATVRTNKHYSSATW

[6] = target: Receptor-interacting serine/threonine-protein kinase 1 (Homo sapiens) (UniProt Q13546); assay: Selectivity interaction (KinomeScan (DiscoverX)) EUB0000335a RIPK1; conditions: at 1 µM
[7] = target: T2, Gamma-aminobutyric acid receptor subunit alpha-1 (Homo sapiens, UniProt P14867); assay: (§1) Selectivity interaction (GPCR panel (PDSP screen)) EUB0000707a GABRA1
T2 sequence (P14867 whole entry): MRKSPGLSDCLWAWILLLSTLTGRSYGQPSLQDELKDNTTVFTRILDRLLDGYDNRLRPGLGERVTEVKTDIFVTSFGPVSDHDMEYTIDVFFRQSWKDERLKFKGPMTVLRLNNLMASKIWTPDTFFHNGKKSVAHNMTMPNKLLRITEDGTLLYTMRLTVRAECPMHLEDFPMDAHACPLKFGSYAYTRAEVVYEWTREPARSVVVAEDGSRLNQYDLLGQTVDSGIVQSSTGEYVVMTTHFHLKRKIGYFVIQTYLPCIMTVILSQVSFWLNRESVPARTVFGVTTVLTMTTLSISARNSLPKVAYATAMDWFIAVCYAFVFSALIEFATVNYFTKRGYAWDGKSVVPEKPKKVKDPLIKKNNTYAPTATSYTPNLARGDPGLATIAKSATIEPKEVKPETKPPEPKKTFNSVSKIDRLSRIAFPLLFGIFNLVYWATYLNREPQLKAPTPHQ

[8] = target: T2, Gamma-aminobutyric acid receptor subunit alpha-1; assay: as §1; remark: listed apart in the source
[9] = target: Hepatocyte growth factor receptor (Homo sapiens) (UniProt P08581); assay: (§2) Selectivity interaction (KinomeScan (DiscoverX)) EUB0000707a MET; conditions: at 1 µM
[10] = test system: Hepatocyte growth factor receptor (Homo sapiens), P08581 [M1250T]; assay: as §2; conditions: at 1 µM
[11] = target: Phosphatidylinositol 4-kinase beta (Homo sapiens) (UniProt Q9UBF8); assay: Selectivity interaction (KinomeScan (DiscoverX)) EUB0000707a PI4KB; conditions: at 1 µM
Phosphatidylinositol 4-kinase beta (Homo sapiens), sequence (Q9UBF8 2-816 limits assumed): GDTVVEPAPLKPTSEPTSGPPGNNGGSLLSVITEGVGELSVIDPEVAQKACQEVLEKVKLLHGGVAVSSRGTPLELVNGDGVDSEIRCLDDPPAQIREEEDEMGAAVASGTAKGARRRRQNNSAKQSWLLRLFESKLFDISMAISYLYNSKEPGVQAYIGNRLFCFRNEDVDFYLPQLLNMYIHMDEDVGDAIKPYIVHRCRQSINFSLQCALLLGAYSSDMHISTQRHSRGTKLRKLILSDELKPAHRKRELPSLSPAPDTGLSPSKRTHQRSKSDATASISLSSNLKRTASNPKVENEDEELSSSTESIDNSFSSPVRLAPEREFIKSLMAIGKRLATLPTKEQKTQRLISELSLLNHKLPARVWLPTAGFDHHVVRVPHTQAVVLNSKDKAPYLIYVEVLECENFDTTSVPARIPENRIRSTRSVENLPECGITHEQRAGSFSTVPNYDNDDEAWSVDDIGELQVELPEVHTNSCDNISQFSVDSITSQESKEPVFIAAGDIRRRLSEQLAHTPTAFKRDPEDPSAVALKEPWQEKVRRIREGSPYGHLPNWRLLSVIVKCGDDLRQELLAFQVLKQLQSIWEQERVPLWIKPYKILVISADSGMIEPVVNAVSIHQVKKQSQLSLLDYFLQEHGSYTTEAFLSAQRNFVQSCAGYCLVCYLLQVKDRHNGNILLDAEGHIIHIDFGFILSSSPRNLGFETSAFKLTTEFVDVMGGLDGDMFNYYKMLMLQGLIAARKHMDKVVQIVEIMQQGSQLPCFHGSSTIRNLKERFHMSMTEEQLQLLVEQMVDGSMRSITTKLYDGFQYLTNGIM

[12] = target: Interleukin-1 receptor-associated kinase 4 (Homo sapiens) (UniProt Q9NWZ3); assay: Selectivity interaction (KinomeScan (DiscoverX)) EUB0000707a IRAK4; conditions: at 1 µM
Interleukin-1 receptor-associated kinase 4 (Homo sapiens), sequence (Q9NWZ3 whole entry): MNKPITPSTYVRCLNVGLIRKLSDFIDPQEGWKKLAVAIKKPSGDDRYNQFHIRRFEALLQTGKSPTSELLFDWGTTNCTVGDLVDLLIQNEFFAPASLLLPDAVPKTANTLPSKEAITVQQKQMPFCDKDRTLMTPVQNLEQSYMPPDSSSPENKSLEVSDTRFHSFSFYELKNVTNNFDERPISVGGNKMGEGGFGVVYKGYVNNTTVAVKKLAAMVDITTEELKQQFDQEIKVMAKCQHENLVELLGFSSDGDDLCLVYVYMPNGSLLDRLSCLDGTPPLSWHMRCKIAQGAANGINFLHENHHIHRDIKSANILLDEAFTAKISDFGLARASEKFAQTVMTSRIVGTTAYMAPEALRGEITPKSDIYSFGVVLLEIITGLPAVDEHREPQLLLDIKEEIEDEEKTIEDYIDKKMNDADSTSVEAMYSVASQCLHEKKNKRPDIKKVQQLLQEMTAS

[13] = target: T3, Alpha-1D adrenergic receptor (Homo sapiens, UniProt P25100); assay: Selectivity interaction (GPCR panel (PDSP screen)) EUB0000545a ADRA1D
T3 sequence (P25100 whole entry): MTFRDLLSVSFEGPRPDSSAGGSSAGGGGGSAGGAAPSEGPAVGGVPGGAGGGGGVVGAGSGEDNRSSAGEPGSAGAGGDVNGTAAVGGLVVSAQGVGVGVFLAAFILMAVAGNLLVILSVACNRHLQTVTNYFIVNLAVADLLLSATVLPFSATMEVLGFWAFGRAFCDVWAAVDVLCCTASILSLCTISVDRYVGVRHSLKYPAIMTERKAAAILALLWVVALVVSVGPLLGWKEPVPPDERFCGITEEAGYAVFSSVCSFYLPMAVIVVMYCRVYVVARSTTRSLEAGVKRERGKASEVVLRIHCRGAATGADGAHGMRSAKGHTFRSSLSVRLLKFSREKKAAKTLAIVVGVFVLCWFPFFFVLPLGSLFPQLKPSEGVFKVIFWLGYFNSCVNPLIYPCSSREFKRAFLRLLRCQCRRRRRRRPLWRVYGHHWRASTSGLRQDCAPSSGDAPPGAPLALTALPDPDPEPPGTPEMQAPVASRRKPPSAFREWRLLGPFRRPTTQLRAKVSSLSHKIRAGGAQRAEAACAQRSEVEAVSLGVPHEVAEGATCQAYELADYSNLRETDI

[14] = target: Dual specificity tyrosine-phosphorylation-regulated kinase 1B (Homo sapiens, UniProt Q9Y463); assay: Selectivity interaction (KinomeScan (DiscoverX)) EUB0000545a DYRK1B; conditions: at 1 µM
[15] = target: Focal adhesion kinase 1 (Homo sapiens, UniProt Q05397); assay: Selectivity interaction (KinomeScan (DiscoverX)) EUB0000545a PTK2; conditions: at 1 µM
[16] = target: Rho-associated protein kinase 1 (Homo sapiens) (UniProt Q13464); assay: Selectivity interaction (KinomeScan (DiscoverX)) EUB0000545a ROCK1; conditions: at 1 µM

D(1A) dopamine receptor, sequence (P21728 whole entry): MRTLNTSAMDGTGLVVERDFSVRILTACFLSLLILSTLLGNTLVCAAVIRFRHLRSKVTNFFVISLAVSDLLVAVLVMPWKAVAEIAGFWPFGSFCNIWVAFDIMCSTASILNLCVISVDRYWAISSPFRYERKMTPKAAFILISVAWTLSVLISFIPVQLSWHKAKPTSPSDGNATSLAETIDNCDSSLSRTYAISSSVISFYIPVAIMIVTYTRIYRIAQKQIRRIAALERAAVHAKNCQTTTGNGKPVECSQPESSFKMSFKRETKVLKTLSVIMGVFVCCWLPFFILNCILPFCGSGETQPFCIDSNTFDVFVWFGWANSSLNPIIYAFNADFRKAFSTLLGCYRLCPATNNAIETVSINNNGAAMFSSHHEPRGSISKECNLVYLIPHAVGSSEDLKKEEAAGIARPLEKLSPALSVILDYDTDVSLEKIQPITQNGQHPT

## O=C(NCc1ncc(C(F)(F)F)cc1Cl)c1ccc2c(c1)C1(CCS(=O)(=O)CC1)[C@@H](C1CC1)N2S(=O)(=O)c1ccc(F)cc1 [BAY-786]
[1]
  Ki: > 10000 nM
[2]
  % of control: 41%
[3]
  % of control: 1.9%
[4]
  % of control: 0%
[5]
  % of control: 0%
[6]
  % of control: 30%

## CC1=C(C#N)C(c2ccc3c(c2)c(NC(=O)c2ccccc2C)nn3C)C(C#N)=C(C)N1 [BAY-974]
[7]
  Ki: 21 nM
[8]
  Ki: 21 nM
[9]
  % of control: 24%
[10]
  % of control: 27%
[11]
  % of control: 30%
[12]
  % of control: 7.5%

## CC(=O)N1CCC(c2ccc(C(=O)NC3=NCCN3)cc2C(F)(F)F)CC1 [BI 0054]
[13]
  Ki: > 10000 nM
[14]
  % of control: 37%
[15]
  % of control: 17%
[16]
  % of control: 0.5%
